From patent publication US4684664A, “Derivatives of β-(4-isocyano-1,2,3,4-diepoxycyclopentyl) acrylic acid” (Kureha Kagaku Kogyo Kabushiki Kaisha, priority 1984, dated 1987)
Converted amounts (≈) assume the structure as drawn.

Experiments:
Format in all cases: cell-based
[1] = tested on: Pseudomonas aeruginosa NCTC 10490; assay: Antibacterial activity, agar-dilution MIC, organism No. 16; settings: Organism No. 16, bouillon-agar; for MIC: Pseudomonas aeruginosa, NCTC10490, read-out: Minimum Inhibitory Concentration
Outline: (§1)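 Dilution in agar (bouillon-agar base) is the format; activity is expressed as MIC, μg per ml medium.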

[2] = tested on: Candida albicans IAM 4905; assay: Antifungal activity, agar-dilution MIC, organism No. 29; settings: Organism No. 29, bouillon-agar; for MIC: Candida albicans, IAM4905, read-out: Minimum Inhibitory Concentration
Outline: as §1

[3] = tested on: Mycoplasma pneumoniae IID817; assay: Antimycoplasmal activity, MIC by phenol red colour change, organism No. 28; settings: Organism No. 28, PPLO broth + 1% glucose, 37° C.; for MIC: Mycoplasma, IID817, read-out: Minimum Inhibitory Concentration (MIC)
Method: Mycoplasma pneumoniae IID817 was used as the test microorganism in a culture medium prepared by adding 1% of glucose to "PPLO broth (manufactured by Difco Co.) liquid culture medium" at 37° C. with phenol red as an indicator, thereby culturing the test microorganism.

[4] = tested on: Klebsiella pneumoniae PCI-602; assay: Antibacterial activity, agar-dilution MIC, organism No. 7; settings: Organism No. 7, bouillon-agar; for MIC: Klebsiella pneumoniae, PCI602, read-out: Minimum Inhibitory Concentration
Outline: as §1

[5] = tested on: Salmonella shottmuelleri 8006; assay: Antibacterial activity, agar-dilution MIC, organism No. 11; settings: Organism No. 11, bouillon-agar; for MIC: Salmonella, 8006, read-out: Minimum Inhibitory Concentration
Outline: as §1

[6] = tested on: Staphylococcus aureus MS 353; assay: Antibacterial activity, agar-dilution MIC, organism No. 3; settings: Organism No. 3, bouillon-agar; for MIC: Staphylococcus aureus, MS353, read-out: Minimum Inhibitory Concentration
Outline: as §1

[7] = tested on: Salmonella enteritidis G 14; assay: Antibacterial activity, agar-dilution MIC, organism No. 12; settings: Organism No. 12, bouillon-agar; for MIC: Salmonella enterica, ENTERITIDIS, read-out: Minimum Inhibitory Concentration
Outline: as §1

Proteus vulgaris OX-19 = assay: Antibacterial activity, agar-dilution MIC, organism No. 20; settings: Organism No. 20, bouillon-agar; for MIC: Proteus vulgaris, OX19, read-out: Minimum Inhibitory Concentration
Outline: as §1

[8] = tested on: Micrococcus luteus ATCC 9341; assay: Antibacterial activity, agar-dilution MIC, organism No. 25; settings: Organism No. 25, bouillon-agar; for MIC: Micrococcus luteus, ATCC9341, read-out: Minimum Inhibitory Concentration
Outline: as §1

[9] = tested on: Salmonella typhimurium IID 971; assay: Antibacterial activity, agar-dilution MIC, organism No. 8; settings: Organism No. 8, bouillon-agar; for MIC: Salmonella enterica, read-out: Minimum Inhibitory Concentration
Outline: as §1

Enterobacter cloacae 963 = assay: Antibacterial activity, agar-dilution MIC, organism No. 24; settings: Organism No. 24, bouillon-agar; for MIC: Enterobacter cloacae, 963, read-out: Minimum Inhibitory Concentration
Outline: as §1

Proteus vulgaris HX-19 = assay: Antibacterial activity, agar-dilution MIC, organism No. 21; settings: Organism No. 21, bouillon-agar; for MIC: Proteus vulgaris, HX19, read-out: Minimum Inhibitory Concentration
Outline: as §1

[10] = tested on: Proteus mirabilis IFO 3849; assay: Antibacterial activity, agar-dilution MIC, organism No. 19; settings: Organism No. 19, bouillon-agar; for MIC: Proteus mirabilis, IFO3849, read-out: Minimum Inhibitory Concentration
Outline: as §1

[11] = tested on: Aspergillus niger IFO 6342; assay: Antifungal activity, agar-dilution MIC, organism No. 30; settings: Organism No. 30, bouillon-agar; for MIC: Aspergillus niger, IFO6342, read-out: Minimum Inhibitory Concentration
Outline: as §1

[12] = tested on: Pseudomonas aeruginosa PAO 1; assay: Antibacterial activity, agar-dilution MIC, organism No. 17; settings: Organism No. 17, bouillon-agar; for MIC: Pseudomonas aeruginosa, PAO1, read-out: Minimum Inhibitory Concentration
Outline: as §1

Salmonella typhi 901 = assay: Antibacterial activity, agar-dilution MIC, organism No. 9; settings: for MIC: Salmonella enterica, TYPHI, read-out: Minimum Inhibitory Concentration
Outline: as §1

[13] = tested on: Streptococcus pyogenes Cook; assay: Antibacterial activity, agar-dilution MIC, organism No. 4; settings: Organism No. 4, bouillon-agar; for MIC: Streptococcus pyogenes, read-out: Minimum Inhibitory Concentration
Outline: as §1

[14] = tested on: Salmonella paratyphi-A 1015; assay: Antibacterial activity, agar-dilution MIC, organism No. 10; settings: for MIC: Salmonella enterica, PARATYPHI, read-out: Minimum Inhibitory Concentration
Outline: as §1

[15] = tested on: Enterobacter aerogenes ATCC 13048; assay: Antibacterial activity, agar-dilution MIC, organism No. 23; settings: Organism No. 23, bouillon-agar; for MIC: Klebsiella aerogenes, ATCC13048, read-out: Minimum Inhibitory Concentration
Outline: as §1

[16] = tested on: Escherichia coli K12 C600 IAM 1264; assay: Antibacterial activity, agar-dilution MIC, organism No. 6; settings: Organism No. 6, bouillon-agar; for MIC: Escherichia coli, IAM1264, read-out: Minimum Inhibitory Concentration
Outline: as §1

[17] = tested on: Proteus morganii IFO 3848; assay: Antibacterial activity, agar-dilution MIC, organism No. 18; settings: Organism No. 18, bouillon-agar; for MIC: Morganella morganii, IFO3848, read-out: Minimum Inhibitory Concentration
Outline: as §1

[18] = tested on: Escherichia coli NIHJ-JC-2; assay: Antibacterial activity, agar-dilution MIC, organism No. 5; settings: Organism No. 5, bouillon-agar; for MIC: Escherichia coli, NIHJJC2, read-out: Minimum Inhibitory Concentration
Outline: as §1

[19] = tested on: Staphylococcus aureus Terajima; assay: Antibacterial activity, agar-dilution MIC, organism No. 2; settings: Organism No. 2, bouillon-agar; for MIC: Staphylococcus aureus, read-out: Minimum Inhibitory Concentration
Outline: as §1

[20] = tested on: Bacillus subtilis ATCC 6633; assay: Antibacterial activity, agar-dilution MIC, organism No. 14; settings: Organism No. 14, bouillon-agar; for MIC: Bacillus subtilis, ATCC6633, read-out: Minimum Inhibitory Concentration
Outline: as §1

[21] = tested on: Streptococcus faecium IFO 3826; assay: Antibacterial activity, agar-dilution MIC, organism No. 27; settings: Organism No. 27, bouillon-agar; for MIC: Enterococcus faecium, IFO3826, read-out: Minimum Inhibitory Concentration
Outline: as §1

[22] = tested on: Proteus rettgeri IFO 3850; assay: Antibacterial activity, agar-dilution MIC, organism No. 22; settings: Organism No. 22, bouillon-agar; for MIC: Providencia rettgeri, IFO3850, read-out: Minimum Inhibitory Concentration
Outline: as §1

[23] = tested on: Streptococcus pyogenes IFO 3340; assay: Antibacterial activity, agar-dilution MIC, organism No. 26; settings: Organism No. 26, bouillon-agar; for MIC: Streptococcus pyogenes, IFO3340, read-out: Minimum Inhibitory Concentration
Outline: as §1

[24] = tested on: Pseudomonas aeruginosa IFO 3445; assay: Antibacterial activity, agar-dilution MIC, organism No. 15; settings: Organism No. 15, bouillon-agar; for MIC: Pseudomonas aeruginosa, IFO3445, read-out: Minimum Inhibitory Concentration
Outline: as §1

[25] = tested on: Staphylococcus aureus FDA 209PJc-1; assay: Antibacterial activity, agar-dilution MIC, organism No. 1; settings: Organism No. 1, bouillon-agar; for MIC: Staphylococcus aureus, FDA209PJC1, read-out: Minimum Inhibitory Concentration
Outline: as §1

[26] = tested on: Serratia marcescens IAM 1184; assay: Antibacterial activity, agar-dilution MIC, organism No. 13; settings: Organism No. 13, bouillon-agar; for MIC: Serratia marcescens, IAM1184, read-out: Minimum Inhibitory Concentration
Outline: as §1

With `[C-]#[N+]C12CC3(/C=C/C(=O)Nc4ccc(S(N)(=O)=O)cc4)OC3C1O2` (stereo not drawn) [compound 63] the MIC [1] was over 200 µg/mL, the MIC [2] was 100 µg/mL (≈ 288 µM) and the MIC [3] was under 0.2 µg/mL. The MIC [4] was 3.13 µg/mL (≈ 9.01 µM), the MIC [5] was 12.5 µg/mL (≈ 36 µM) and the MIC [6] was 3.13 µg/mL (≈ 9.01 µM). It also gave an MIC [7] of 25 µg/mL (≈ 72 µM), an MIC (Proteus vulgaris OX-19) of 1.56 µg/mL (≈ 4.49 µM) and an MIC [8] of 25 µg/mL (≈ 72 µM). For the same compound, the MIC [9] was 100 µg/mL (≈ 288 µM), the MIC (Enterobacter cloacae 963) was over 200 µg/mL and the MIC (Proteus vulgaris HX-19) was 1.56 µg/mL (≈ 4.49 µM). The MIC [10] was over 200 µg/mL, the MIC [11] was 100 µg/mL (≈ 288 µM) and the MIC [12] was over 200 µg/mL. For the same compound, the MIC (Salmonella typhi 901) was 50 µg/mL (≈ 144 µM), the MIC [13] was over 200 µg/mL and the MIC [14] was 12.5 µg/mL (≈ 36 µM). It also gave an MIC [15] of over 200 µg/mL, an MIC [16] of over 200 µg/mL and an MIC [17] of 3.13 µg/mL (≈ 9.01 µM). For the same compound, the MIC [18] was over 200 µg/mL, the MIC [19] was 25 µg/mL (≈ 72 µM) and the MIC [20] was 50 µg/mL (≈ 144 µM). For the same compound, the MIC [21] was over 200 µg/mL, the MIC [22] was 6.25 µg/mL (≈ 18 µM) and the MIC [23] was 6.25 µg/mL (≈ 18 µM). For the same compound, the MIC [24] was over 200 µg/mL, the MIC [25] was 3.13 µg/mL (≈ 9.01 µM) and the MIC [26] was over 200 µg/mL.
In the case of `[C-]#[N+]C12CC3(/C=C/C(=O)Nc4ccccc4O)OC3C1O2` (stereo not drawn) [compound 58], the MIC [1] is reported as over 200 µg/mL, the MIC [2] is reported as 12.5 µg/mL (≈ 44 µM) and the MIC [3] is reported as under 0.2 µg/mL. The MIC [4] was 0.78 µg/mL (≈ 2.74 µM), the MIC [5] was 1.56 µg/mL (≈ 5.49 µM) and the MIC [6] was 3.13 µg/mL (≈ 11 µM). The MIC [7] was 3.13 µg/mL (≈ 11 µM), the MIC (Proteus vulgaris OX-19) was 0.78 µg/mL (≈ 2.74 µM) and the MIC [8] was 0.2 µg/mL (≈ 0.704 µM). For the same compound, the MIC [9] was 6.25 µg/mL (≈ 22 µM), the MIC (Enterobacter cloacae 963) was 100 µg/mL (≈ 352 µM) and the MIC (Proteus vulgaris HX-19) was 0.78 µg/mL (≈ 2.74 µM). It also gave an MIC [10] of 12.5 µg/mL (≈ 44 µM), an MIC [11] of 12.5 µg/mL (≈ 44 µM) and an MIC [12] of over 200 µg/mL. It also gave an MIC (Salmonella typhi 901) of 3.13 µg/mL (≈ 11 µM), an MIC [13] of 12.5 µg/mL (≈ 44 µM) and an MIC [14] of 1.56 µg/mL (≈ 5.49 µM). For the same compound, the MIC [15] was over 200 µg/mL, the MIC [16] was 12.5 µg/mL (≈ 44 µM) and the MIC [17] was 1.56 µg/mL (≈ 5.49 µM). The MIC [18] was 12.5 µg/mL (≈ 44 µM), the MIC [19] was 3.13 µg/mL (≈ 11 µM) and the MIC [20] was 12.5 µg/mL (≈ 44 µM). The MIC [21] was 12.5 µg/mL (≈ 44 µM), the MIC [22] was 1.56 µg/mL (≈ 5.49 µM) and the MIC [23] was 3.13 µg/mL (≈ 11 µM). For the same compound, the MIC [24] was over 200 µg/mL, the MIC [25] was 3.13 µg/mL (≈ 11 µM) and the MIC [26] was 12.5 µg/mL (≈ 44 µM).
`[C-]#[N+]C12CC3(/C=C/C(=O)Nc4ccc(SC)cc4)OC3C1O2` (stereo not drawn) [compound 76] was tested, and the “Minimum Inhibitory Concentration” value [1] was over 200 µg/mL, the “Minimum Inhibitory Concentration” value [2] was 25 µg/mL and the “Minimum Inhibitory Concentration (MIC)” value [3] was under 0.2. For the same compound, the “Minimum Inhibitory Concentration” value [4] was 0.78 µg/mL, the “Minimum Inhibitory Concentration” value [5] was 1.56 µg/mL and the “Minimum Inhibitory Concentration” value [6] was 0.78 µg/mL. The “Minimum Inhibitory Concentration” value [7] was over 200 µg/mL, the “Minimum Inhibitory Concentration” value (Proteus vulgaris OX-19) was 1.56 µg/mL and the “Minimum Inhibitory Concentration” value [8] was 50 µg/mL. For the same compound, the “Minimum Inhibitory Concentration” value [9] was over 200 µg/mL, the “Minimum Inhibitory Concentration” value (Enterobacter cloacae 963) was 200 µg/mL and the “Minimum Inhibitory Concentration” value (Proteus vulgaris HX-19) was 0.78 µg/mL. For the same compound, the “Minimum Inhibitory Concentration” value [10] was over 200 µg/mL, the “Minimum Inhibitory Concentration” value [11] was 100 µg/mL and the “Minimum Inhibitory Concentration” value [12] was over 200 µg/mL. The “Minimum Inhibitory Concentration” value (Salmonella typhi 901; Organism No. 9, bouillon-agar) was 25 µg/mL, the “Minimum Inhibitory Concentration” value [13] was 100 µg/mL and the “Minimum Inhibitory Concentration” value ([14]; Organism No. 10, bouillon-agar) was 0.78 µg/mL. For the same compound, the “Minimum Inhibitory Concentration” value [15] was over 200 µg/mL, the “Minimum Inhibitory Concentration” value [16] was over 200 µg/mL and the “Minimum Inhibitory Concentration” value [17] was 3.13 µg/mL. For the same compound, the “Minimum Inhibitory Concentration” value [18] was over 200 µg/mL, the “Minimum Inhibitory Concentration” value [19] was 1.56 µg/mL and the “Minimum Inhibitory Concentration” value [20] was 12.5 µg/mL. For the same compound, the “Minimum Inhibitory Concentration” value [21] was 1.56 µg/mL, the “Minimum Inhibitory Concentration” value [22] was 100 µg/mL and the “Minimum Inhibitory Concentration” value [23] was 1.56 µg/mL. The “Minimum Inhibitory Concentration” value [24] was over 200 µg/mL, the “Minimum Inhibitory Concentration” value [25] was 0.39 µg/mL and the “Minimum Inhibitory Concentration” value [26] was over 200 µg/mL.
